The values below come from patent US12559504B2, “Benzotriazole derivative” (UBE CORPORATION, priority 2019, dated 2026).

Data set [1] in a line: Metabolism test using human liver microsome fractions. The data set is classed as in vitro ADME. The settings on record: human liver microsomes, test compound 10 μmol/L, NADPH and UDP-glucuronic acid, 37° C. An outline of the steps:
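Human or monkey liver microsomes (1 mg protein) with NADPH-regenerating system plus UDP-glucuronic acid/UGT mix, 37 °C; compound at 10 μmol/L final. Samples at 0–30 min quenched in acetonitrile, UV-HPLC; elimination rate (pmol/min/mg-P) from linear slope of residual amount over time.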
Background: Liver microsomes are vesicles of endoplasmic reticulum, rich in cytochrome P450 enzymes.

Data set [2] deals with NQO1. In words: NQO1 expression induction test in mouse kidney (single administration). The data set is classed as in vivo. The settings on record: Mus musculus, po, 6 h, Dose 30 mg/kg, BALB/c mouse kidney, 6 hours after administration, ratio to control group. An outline of the steps:
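Female BALB/c mice received a single oral dose of compound in 0.5% methylcellulose, with untreated mice as controls. Six hours later, left-kidney NQO1 mRNA was measured by SYBR real-time RT-PCR normalised to GAPDH. Induction was expressed as the ratio of mean treated to mean control expression.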

Data set [3] concerns the target T1, GST fusion human Keap1 (amino acid residue: 325-624) protein (Homo sapiens, UniProt Q14145).
T1 construct: GST fusion human Keap1 (amino acid residue: 325-624) protein; purchased Protein tech Ag0779
Nature of the data set: Keap1-Nrf2 binding inhibition test (fluorescence polarization). The settings on record: compound concentration of 100 nM; read-out: inhibition rate. An outline of the steps: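 Fluorescence polarization with FITC-labelled Nrf2 peptide (FITC-Ahx-LDEETGEFL-NH2) and GST-human Keap1 (325-624) in 20 mM Tris pH 7.5, 150 mM NaCl, 0.05% Tween 20, 5 mM DTT, BSA; 30 min at room temperature, ex 482/em 530 nm. Percent inhibition at 100 nM compound, Keap1-free wells = 100%.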

Data set [4] relates to NQO1. Nature of the data set: NQO1 enzyme induction test (in vitro) in Hepa1c1c7 cells. The data set is classed as cell-based. Conditions: Mus musculus, Hepa-1c1c7, 48 h, concentration to elevate the NQO1 activity by 1.5 times, about 48 hours, read-out: EC150. An outline of the steps:
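Mouse Hepa1c1c7 cells treated about 48 h with compound (0.1% DMSO final), then lysed. NQO1 activity read as MTT reduction at 540 nm with menadione substrate, 5 min at room temperature, and corrected for cell number by CellTiter-Glo. EC150 is the concentration raising NQO1 activity 1.5-fold.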

Molecules are shown by their SMILES.

T1 sequence (Q14145 325-624): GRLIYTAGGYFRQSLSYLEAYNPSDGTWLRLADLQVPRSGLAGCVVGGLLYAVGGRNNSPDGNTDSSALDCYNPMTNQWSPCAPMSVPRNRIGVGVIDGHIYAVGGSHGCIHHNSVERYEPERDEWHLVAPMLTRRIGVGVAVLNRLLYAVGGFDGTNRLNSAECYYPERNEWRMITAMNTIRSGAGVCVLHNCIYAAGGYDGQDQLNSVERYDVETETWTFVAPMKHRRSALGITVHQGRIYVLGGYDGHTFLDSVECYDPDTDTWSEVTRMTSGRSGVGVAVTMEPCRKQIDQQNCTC

On to `CC[C@@H]1CN(Cc2cc(C(c3ccc4c(nnn4C)c3C)C(C)(C)C(=O)O)ccc2C)Cc2cc(F)c3ccccc3c2O1` (stereo partly drawn) [Example 49-(b), 3-(1,4-dimethyl-1H-benzo[d](1,2, 3)triazol-5-yl)-3-(3-(((R)-2-ethyl-7-fluoro-2,3-dihydronaphtho[2,1-f][1,4]oxazepin-4 (5H)-yl)methyl)-4-methylphenyl)-2,2-dimethylpropanoic Acid], for which the Human metabolic rate result in data set [1] is reported as “B (100≤metabolic rate<150 pmol/min/mg protein)”. In addition, the fold induction (as a rule, the signal under treatment as a multiple of the control signal) at 30 mg/kg in the data set with NQO1 [2] is more than 6. For the same compound, the inhibition (usually the relative decrease from the control value, in per cent) at 0.1 µM in data set [3] is not below 50%. Further, the EC (1.5-fold NQO1 activity) with NQO1 [4] fell in the range of 0.0005 to 0.005 µM.

On to `CC[C@@H]1CN(Cc2cc(C(c3ccc4c(nnn4C)c3C)C(C)(C)C(=O)O)ccc2C)Cc2cc3cnn(C)c3cc2O1` (stereo partly drawn) [Example 50-(b), 3-(1,4-dimethyl-1H-benzo[d][1,2,3]triazol-5-yl)-3-(3-(((R)-8-ethyl-1-methyl-1,5,7,8-tetrahydro-6H-[1,4]oxazepino[6,7-f]indazol-6-yl)methyl)-4-methylphenyl)-2,2-dimethylpropanoic Acid], for which the Human metabolic rate result in data set [1] is “C (150≤metabolic rate<200 pmol/min/mg protein)”. Further, the fold induction at 30 mg/kg in the data set on NQO1 [2] is more than 6. For the same compound, the inhibition at 0.1 µM in data set [3] is not below 50%. Moreover, the EC (1.5-fold NQO1 activity) in the data set on NQO1 [4] was 0.0005 to 0.005 µM.

For `CC[C@@H]1CN(Cc2cc(C(c3ccc4c(nnn4C)c3C)C(C)(C)C(=O)O)ccc2C)Cc2cc3cn(C)nc3cc2O1` (stereo partly drawn) [Example 51-(b), 3-(1,4-dimethyl-1H-benzo[d][1,2,3]triazol-5-yl)-3-(3-(((R)-8-ethyl-2-methyl-2,5,7,8-tetrahydro-6H-[1,4]oxazepino[6,7-f]indazol-6-yl)methyl)-4-methylphenyl)-2,2-dimethylpropanoic Acid], in data set [1], the Human metabolic rate result is given as “B (100≤metabolic rate<150 pmol/min/mg protein)”. Besides, in the data set with NQO1 [2], the fold induction at 30 mg/kg is more than 6. In addition, in data set [3], the inhibition at 0.1 µM was not below 50%. The EC (1.5-fold NQO1 activity) in the data set with NQO1 [4] is 0.0005 to 0.005 µM.

With `CC[C@@H]1CN(Cc2cc(C(c3ccc4c(nnn4C)c3C)C(C)(C)C(=O)O)ccc2C)Cc2cc3ccncc3cc2O1` (stereo partly drawn) [Example 52-(b), 3-(1,4-dimethyl-1H-benzo[d][1,2, 3]triazol-5-yl)-3-(3-(((R)-2-ethyl-2,3-dihydro-[1,4]oxazepino[6,7-g]isoquinolin-4 (5H)-yl)methyl)-4-methylphenyl)-2,2-dimethylpropanoic Acid], in data set [1], the Human metabolic rate result is “C (150≤metabolic rate<200 pmol/min/mg protein)”. Moreover, the fold induction at 30 mg/kg with NQO1 [2] is more than 6. For the same compound, the inhibition at 0.1 µM in data set [3] is not below 50%. The EC (1.5-fold NQO1 activity) in the data set with NQO1 [4] is 0.0005 to 0.005 µM.

For `CC[C@@H]1CN(Cc2cc(C(c3ccc4c(nnn4C)c3C)C(C)(C)C(=O)O)ccc2C)Cc2cc3cnccc3cc2O1` (stereo partly drawn) [Example 53, 3-(1,4-dimethyl-1H-benzo[d][1,2,3]triazol-5-yl)-3-(3-(((R)-2-ethyl-2,3-dihydro-[1,4]oxazepino[7,6-g]isoquinolin-4 (5H)-yl)methyl)-4-methylphenyl)-2,2-dimethylpropanoic Acid], the Human metabolic rate entry in data set [1] is listed as “C (150≤metabolic rate<200 pmol/min/mg protein)”. Further, the fold induction at 30 mg/kg with NQO1 [2] was more than 6. The inhibition at 0.1 µM in data set [3] was not below 50%. For the same compound, in the data set with NQO1 [4], the EC (1.5-fold NQO1 activity) lay within 0.0005 to 0.005 µM.

`CC[C@@H]1CN(Cc2cc(C(c3ccc4c(nnn4C)c3C)C(C)(C)C(=O)O)ccc2C)Cc2cc3c(F)cccc3cc2O1` (stereo partly drawn) [Example 54-(b), 3-(1,4-dimethyl-1H-benzo[d][1,2,3]triazol-5-yl)-3-(3-(((R)-2-ethyl-7-fluoro-2,3-dihydronaphtho[2,3-f][1,4]oxazepin-4(5H)-yl)methyl)-4-methylphenyl)-2,2-dimethylpropanoic Acid]: in data set [1], the Human metabolic rate entry was “B (100≤metabolic rate<150 pmol/min/mg protein)”. In the data set with NQO1 [2], the fold induction at 30 mg/kg fell in the range of 3 to 6. In addition, the inhibition at 0.1 µM in data set [3] was not below 50%. Further, in the data set on NQO1 [4], the EC (1.5-fold NQO1 activity) lay within 0.005 to 0.05 µM.
